Measurements from paper PMC11981944 (Nature, 2025).
Like-named read-outs stand apart in the source and are kept apart here.

What was measured:
[1] = system: SARS-CoV-2 B.1.351; type: in vivo; details: SCID mice, no ritonavir
[2] = system: SARS-CoV-2 USA-WA1/2020; design: species or system Syrian hamsters (Mesocricetus auratus); details: hamster, in vivo
[3] = system: SARS-CoV-2 (strain BavPat1/2020); type: cell-based
[4] = system: SARS-CoV-2; type: cell-based

SMILES | antiviral activity in vivo (in words) ([1]; 100 mg per kg twice a day) | antiviral activity in vivo (in words) ([1]; three-fold higher dose (300 mg per kg twice a day)) | lung parenchyma histology (in words) [2] | DMVs by TEM (in words) [3] | antiviral activity (in words) [4]
CC(C)(C)[C@H](NC(=O)C(F)(F)F)C(=O)N1C[C@H]2[C@@H]([C@H]1C(=O)N[C@H](C#N)C[C@@H]1CCNC1=O)C2(C)C [Nirmatrelvir] | devoid of antiviral activity | effective | nearly normal | no cells producing DMV clusters, virions or concentric membrane stacks could be detected | 
N#C[C@@]1(c2ccc3c(N)ncnn23)O[C@H](CO)[C@@H](O)[C@H]1O [GS-441524] |  |  |  |  | micromolar range
